{"source": "patent US5413990A", "about": "“N-terminus modified analogs of LHRH” (Tap Pharmaceuticals Inc., priority 1993, dated 1995)", "note": "Numbered stars: 1 amine (or outer) side, 2 acyl side, 3 side chain; on linkers, the order of the positions; unused ones are H or OH. Square brackets hold non-standard residues; d marks the D form. Peptide text beside a SMILES is read from it. * marks the point of attachment. dPhe(4-Cl) = N[C@H](Cc1ccc(Cl)cc1)C(=O)O; NH(2-morpholinoethyl) = C(CN1CCOCC1)N*; d2Nal = N[C@H](Cc1ccc2ccccc2c1)C(=O)O; Cyclopentanecarbonyl = O=C(C1CCCC1)*; Lys(iPr) = CC(C)NCCCC[C@H](N)C(=O)O; NMeY = CN[C@@H](Cc1ccc(O)cc1)C(=O)O; dCit = NC(=O)NCCC[C@@H](N)C(=O)O; d3Pal = N[C@H](Cc1cccnc1)C(=O)O; Suc = O=C(CCC(=O)[*:2])[*:1]; Nicotinoyl = O=C(c1cccnc1)*; CO = O=C([*:1])[*:2]; Butyryl = CCCC(=O)*; For = O=C*"}
{"molecular_target": "T1, LHRH (Rattus norvegicus, UniProt P30969)", "T1 construct": "evaluated in an in vitro test for LHRH antagonist potency (pA2); endogenous in cells; host or cells: pituitary cells (rat, from my own knowledge of the cited method)", "T1 sequence (P30969 1-327)": "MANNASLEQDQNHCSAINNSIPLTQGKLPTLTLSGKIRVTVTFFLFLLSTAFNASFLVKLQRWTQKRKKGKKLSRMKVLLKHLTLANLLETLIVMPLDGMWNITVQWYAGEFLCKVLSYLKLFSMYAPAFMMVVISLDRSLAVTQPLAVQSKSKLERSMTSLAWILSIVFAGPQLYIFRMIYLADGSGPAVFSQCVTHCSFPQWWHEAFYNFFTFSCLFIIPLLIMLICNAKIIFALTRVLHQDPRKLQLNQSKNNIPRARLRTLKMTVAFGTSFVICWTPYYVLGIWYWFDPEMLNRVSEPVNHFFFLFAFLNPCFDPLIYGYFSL", "assay": "in vitro test for LHRH antagonist potency (pA2)", "format": "cell-based", "conditions": "negative logarithm of the antagonist concentration required to shift the response curve produced by the agonist leuprolide to two-fold higher concentration", "method": "Representative compounds of the present invention were evaluated in an in vitro test for LHRH antagonist potency (pA2). The test employed the method detailed in F. Haviv, et al. J. Med. Chem., 32:2340-2344 (1989). The values of pA2 are the negative logarithms of the concentration of the particular antagonist test compound required to shift the response curve produced by the agonist leuprolide to two-fold higher concentration. (Leuprolide is the LHRH agonist having the structure 5-oxo-Pro^1 -His^2 -Trp^3 -Ser^4 -Tyr^5 -D-Leu^6 -Leu^7 -Arg^8 -Pro^9 -NHEt and is disclosed and claimed in U.S. Pat. No. 4,005,063.) Typically pA2 values of 9.5 or greater are indicative of good LHRH antagonist potency, with values of 10.0 or greater being preferred.", "units": {"Kb": "nM"}}
{"smiles": "CC(C)C[C@H](NC(=O)[C@@H](CCCNC(N)=O)NC(=O)[C@H](Cc1ccc(O)cc1)N(C)C(=O)[C@H](CO)NC(=O)[C@@H](Cc1cccnc1)NC(=O)[C@@H](Cc1ccc(Cl)cc1)NC(=O)[C@@H](Cc1ccc2ccccc2c1)NC(=O)CCC(=O)O)C(=O)N[C@@H](CCCNC(=N)N)C(=O)N1CCC[C@H]1C(=O)N[C@H](C)C(N)=O", "note": "[Example 6, N-Succinyl-D2Nal-D4ClPhe-D3Pal-Ser-NMeTyr-DCit-Leu-Arg-Pro-DAlaNH2] (Suc-[d2Nal][dPhe(4-Cl)][d3Pal]S[NMeY][dCit]LRP[dA]-NH2)", "Kb": 0.0398}
{"smiles": "CCCC(=O)N[C@H](Cc1ccc2ccccc2c1)C(=O)N[C@H](Cc1ccc(Cl)cc1)C(=O)N[C@H](Cc1cccnc1)C(=O)N[C@@H](CO)C(=O)N(C)[C@@H](Cc1ccc(O)cc1)C(=O)N[C@H](CCCCNC(=O)c1cccnc1)C(=O)N[C@@H](CC(C)C)C(=O)N[C@@H](CCCCNC(C)C)C(=O)N1CCC[C@H]1C(=O)N[C@H](C)C(N)=O", "note": "[Example 2b, N-Butyryl-D2Nal-D4ClPhe-D3Pal-Ser-NMeTyr-DLys(N-epsilon-Nicotinyl)-Leu-Lys(N-epsilon-Isopropyl)-Pro-DAlaNH 2] (Butyryl-[d2Nal][dPhe(4-Cl)][d3Pal]S[NMeY][dK](Nicotinoyl)L[Lys(iPr)]P[dA]-NH2)", "Kb": 0.00891}
{"smiles": "CC(C)C[C@H](NC(=O)[C@@H](CCCCNC(=O)c1cccnc1)NC(=O)[C@H](Cc1ccc(O)cc1)N(C)C(=O)[C@H](CO)NC(=O)[C@@H](Cc1cccnc1)NC(=O)[C@@H](Cc1ccc(Cl)cc1)NC(=O)[C@@H](Cc1ccc2ccccc2c1)NC(=O)C1CCCC1)C(=O)N[C@@H](CCCCNC(C)C)C(=O)N1CCC[C@H]1C(=O)N[C@H](C)C(N)=O", "note": "[Example 2g, N-Cyclopentylcarbonyl-D2Nal-D4ClPhe-D3Pal-Ser-NMeTyr-DLys(N-epsilon-Nicotinyl)-Leu-Lys(N-epsilon-lsopropyl)-Pro-DAlaNH 2] (Cyclopentanecarbonyl-[d2Nal][dPhe(4-Cl)][d3Pal]S[NMeY][dK](Nicotinoyl)L[Lys(iPr)]P[dA]-NH2)", "Kb": 0.0708}
{"smiles": "CC(C)C[C@H](NC(=O)[C@@H](CCCNC(N)=O)NC(=O)[C@H](Cc1ccc(O)cc1)N(C)C(=O)[C@H](CO)NC(=O)[C@@H](Cc1cccnc1)NC(=O)[C@@H](Cc1ccc(Cl)cc1)NC(=O)[C@@H](Cc1ccc2ccccc2c1)NC=O)C(=O)N[C@@H](CCCNC(=N)N)C(=O)N1CCC[C@H]1C(=O)N[C@H](C)C(N)=O", "note": "[Example 5a, N-Formyl-D2Nal-D4ClPhe-D3Pal-Ser-NMeTyr-DCit-Leu-Arg-Pro-DAlaNH2] (For-[d2Nal][dPhe(4-Cl)][d3Pal]S[NMeY][dCit]LRP[dA]-NH2)", "Kb": 0.00447}
{"smiles": "CCCC(=O)N[C@H](Cc1ccc2ccccc2c1)C(=O)N[C@H](Cc1ccc(Cl)cc1)C(=O)N[C@H](Cc1cccnc1)C(=O)N[C@@H](CO)C(=O)N(C)[C@@H](Cc1ccc(O)cc1)C(=O)N[C@H](CCCNC(N)=O)C(=O)N[C@@H](CC(C)C)C(=O)N[C@@H](CCCNC(=N)N)C(=O)N1CCC[C@H]1C(=O)N[C@H](C)C(N)=O", "note": "[Example 5c, N-Butyryl-D2Nal-D4ClPhe-D3Pal-Ser-NMeTyr-DCit-Leu-Arg-Pro-DAlaNH2] (Butyryl-[d2Nal][dPhe(4-Cl)][d3Pal]S[NMeY][dCit]LRP[dA]-NH2)", "Kb": 0.00562}
{"smiles": "CC(C)C[C@H](NC(=O)[C@@H](CCCNC(N)=O)NC(=O)[C@H](Cc1ccc(O)cc1)N(C)C(=O)[C@H](CO)NC(=O)[C@@H](Cc1cccnc1)NC(=O)[C@@H](Cc1ccc(Cl)cc1)NC(=O)[C@@H](Cc1ccc2ccccc2c1)NC(=O)NCCN1CCOCC1)C(=O)N[C@@H](CCCNC(=N)N)C(=O)N1CCC[C@H]1C(=O)N[C@H](C)C(N)=O", "note": "[Example 8c, N-(Morpholinoethylaminocarbonyl)-D2Nal-D4ClPhe-D3Pal-Ser-NMeTyr-DCit-Leu-Arg-Pro-DAlaNH2] ({NH(2-morpholinoethyl)-CO}-[d2Nal][dPhe(4-Cl)][d3Pal]S[NMeY][dCit]LRP[dA]-NH2)", "Kb": 0.049}
